Experimental findings from US11649239B2, “Crystal form a of (5-amino-8-(2-methyl-6-(trifluoromethyl)pyridin-4-yl)-7-phenyl-[1,2,4]triazolo[1,5-c]pyrimidin-2-yl)methanol (compound 1)” (Medshine Discovery Inc., priority 2018, dated 2023) are described below.

Series [1] concerns the target T1, human adenosine A2a receptor (Homo sapiens, UniProt P29274).
T1 construct: host or cells: CHO cells
The experiment in a line: Calcium flux assay of the human adenosine A2a receptor (FLIPR, CHO cells stably expressing A2a, agonist NECA). The settings on record: conclusion on Table 3. The class given is cell-based. On the procedure:
Calcium Flux Assay of the Human Adenosine A2a Receptor
The cell line stably expressing A2a was constructed by Shanghai WuXi AppTec, and the host cells were CHO cells.
Fluo-4 Direct kit (Invitrogen, Cat. No. F10471). The fluorescence detection reagent in the kit (which can specifically bind to calcium ions and cause an increase in the fluorescence signal) was incubated with the cells for an appropriate period of time, and the compounds were added to stimulate the cells to cause changes in the intracellular calcium flux, thereby causing changes in the fluorescence signal, which can reflect the strength of the agonistic or inhibitory activity of the compounds. […]
FLIPR instrument software was run. According to the set program, 10 μl of the compound dilution buffer was added to the cell plate, and the fluorescence signal was read. Then 10 μl of a predetermined concentration of the agonist as a reference compound was added to the cell plate, and the fluorescence signal was read. After the reading, data was exported through the “Max-Min” and “Read 90 to Maximum allowed” methods in the software. EC80 of the A2A cell line was calculated, and the agonist with a concentration of 6×EC80 was prepared. […]
FLIPR instrument software was run. […] Again, 10 μl of the agonist as a reference compound with a concentration of 6×EC80 was added to the cell plate, and the fluorescence signal was read. […]
A general note: Calcium assays in cells follow changes in intracellular calcium, usually with a dye or a luminescent sensor.

A short description of series [2]: Pharmacokinetics in female Balb/c mice after intravenous injection and oral administration. The class given is in vivo. The method, then: Object of the assay: to test the pharmacokinetics of the compound in female Balb/c mice in vivo
Balb/c mice (female, 15 to 30 g, 7 to 9 weeks old, from Shanghai Lingchang Biotechnology Company)
The pharmacokinetic profile of the compound after intravenous injection and oral administration in the rodents was tested by the standard protocol. In the assay, the candidate compound was prepared into a clear solution to be administered to the mice through a single intravenous injection and prepared into a homogeneous suspension to be administered to the mice through a single oral administration. The vehicle for the intravenous injection was 5% DMSO/95% 10% Cremophor EL, and the vehicle for the oral administration was 1% Tween 80, 9% PEG400, and 90% water. The whole blood sample was collected within 24 hours, and centrifuged at 3000 g at 4° C. for 15 minutes. The supernatant was separated to give the plasma sample, and 20 times volume of acetonitrile solution containing an internal standard was added to precipitate the proteins. […] The supernatant was taken out, and injected as a sample to quantitatively analyze the plasma drug concentration by LC-MS/MS analysis method. The pharmacokinetic parameters were calculated, such as peak concentration, peak time, clearance rate, half-life, area under the drug-time curve, bioavailability, etc.

A short description of series [3]: Determination of solubility of crystal form A of compound 1 in single or mixed solvents. The class given is physicochemical. The settings on record: for solubility: organic solvent or mixture, thermodynamic from solid. On the procedure:
Assay Example 1: Determination of Solubility of Crystal Form A of Compound 1
Multiple portions of about 2.0 mg of crystal form A of compound 1 were weighed in parallel and placed in glass vials. Various single solvents or mixed solvents listed in Table 2 were gradually added in small amount, and shaken constantly, while the dissolution of the compound was observed. The solubility of the compound was calculated based on the weight of the weighed compound and the volume of the correspondingly added solvent.

Series [4] deals with CT26 cells. The experiment in a line: Pharmacodynamics in vivo in CT-26 model (subcutaneous CT26 tumor in BALB/c nude mice). The following applies: anti-PD-1 5 mg/Kg QW; for Volume of tumor: crystal form A 50 mg/Kg BID oral. The source says:
Assay Example 4: Study of Pharmacodynamics of Crystal Form a of Compound 1 In Vivo in CT-26 Model
BALB/c nude mice (female, 7 weeks old, and weighing about 16 to 20 g) were kept in a breeding environment of SPF-class animal room, and in single ventilated cages (5 mice per cage). Bedding and water in all cages were disinfected before use. All the animals had free access to the standard certified commercial laboratory diet. A total of 80 mice were purchased from Shanghai Slack Laboratory Animal Co., Ltd. Anti-PD-1 antibody was purchased from BioXcell with the clone of RMP-14 and the product number of BP0146. 0.1 mL of 3×10^5 CT26 cells were subcutaneously inoculated in the right back of each mouse, and the mice were randomly divided into groups for administration.
CT26 cells were subcutaneously inoculated in the right back of each BALB/c nude mouse to test pharmacodynamics in vivo. In the assay, the test compound was administered orally every day for 22 consecutive days, and the anti-PD-1 antibody was administered once per week for three consecutive weeks. The volume of the tumor was measured twice a week with a two-dimensional caliper, and the volume was measured in cubic millimeter, which was calculated by the following formula: V=0.5 a×b^2, wherein a and b were the long and short diameters of the tumor, respectively. The anti-tumor efficacy was determined by dividing the average volume increase of the tumors of animals treated with the compound by the average volume increase of the tumors of the untreated animals. (BID means twice a day)

Converted amounts (≈) assume the structure as drawn. “Also recorded” adds a separate entry of the source.

T1 sequence (P29274 whole entry): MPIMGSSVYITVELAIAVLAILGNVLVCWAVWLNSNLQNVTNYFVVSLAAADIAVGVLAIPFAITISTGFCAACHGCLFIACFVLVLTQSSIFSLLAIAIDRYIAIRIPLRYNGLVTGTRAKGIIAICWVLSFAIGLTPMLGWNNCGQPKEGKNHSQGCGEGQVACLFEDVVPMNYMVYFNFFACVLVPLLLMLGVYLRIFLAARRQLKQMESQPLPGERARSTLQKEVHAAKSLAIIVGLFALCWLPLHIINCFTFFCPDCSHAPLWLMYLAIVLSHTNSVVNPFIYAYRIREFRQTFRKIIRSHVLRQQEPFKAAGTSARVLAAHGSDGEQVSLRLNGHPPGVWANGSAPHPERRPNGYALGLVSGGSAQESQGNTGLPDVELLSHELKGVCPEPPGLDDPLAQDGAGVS

As for `Cc1cc(-c2c(-c3ccccc3)nc(N)n3nc(CO)nc23)cc(C(F)(F)F)n1` [Compound 1, (5-amino-8-(2-methyl-6-(trifluoromethyl)pyridin-4-yl)-7-phenyl-[1,2,4]triazolo[1,5-c]pyrimidin-2-yl)methanol], the “Antagonistic activity against the adenosine A2a receptor (in words)” value in series [1] is given as “excellent antagonistic activity”. Also, the “Pharmacokinetic index in mice (in words)” value in series [2] (conclusion on Table 4) is listed as “excellent pharmacokinetic index”. For the same molecule, the clearance in series [2] (mouse, plasma, female Balb/c mice, single intravenous injection, read-out: Clearance rate) amounted to 18 mL/min/kg.

The solubility is the dissolved amount per volume that the medium holds. In the case of `Cc1cc(-c2c(-c3ccccc3)nc(N)n3nc(CO)nc23)cc(C(F)(F)F)n1` [Crystal form A of compound 1, (5-amino-8-(2-methyl-6-(trifluoromethyl)pyridin-4-yl)-7-phenyl-[1,2,4]triazolo[1,5-c]pyrimidin-2-yl)methanol], the “Solubility in the solvents of Table 2 (in words)” value in series [3] (conclusion on Table 2) was “good solubility”. The solubility in series [3] (solvent 1,4-Dioxane) is 35 to 52.5 mg/mL (≈ 87.4 to 131 mM); in series [3] (solvent Acetone) it was 33.3 to 50 mg/mL (≈ 83.2 to 125 mM); in series [3] (solvent Acetonitrile), 12.2 to 13.8 mg/mL (≈ 30.5 to 34.5 mM); in series [3] (solvent Acetonitrile:Water (2:1)), 26.3 to 35 mg/mL (≈ 65.7 to 87.4 mM); in series [3] (solvent Ethanol) it was 28.8 to 38.3 mg/mL (≈ 71.9 to 95.7 mM); in series [3] (solvent Ethanol:Water (3:1)), 25 to 50 mg/mL (≈ 62.4 to 125 mM). The solubility in series [3] (solvent Ethyl acetate) is 12.5 to 16.7 mg/mL (≈ 31.2 to 41.7 mM); in series [3] (solvent Isopropanol) it was 14.4 to 16.4 mg/mL (≈ 36 to 41 mM); in series [3] (solvent Methanol), 47.5 to 95 mg/mL (≈ 119 to 237 mM); in series [3] (solvent Methyl ethyl ketone), 36.7 to 55 mg/mL (≈ 91.7 to 137 mM); in series [3] (solvent N-butanol), 15.7 to 18.3 mg/mL (≈ 39.2 to 45.7 mM); in series [3] (solvent Tetrahydrofuran), over 105 mg/mL. Moreover, the “Anti-tumor effect (in words)” value in series [4] (CT-26 mouse model, crystal form A 50 mg/Kg BID) was “has an anti-tumor effect; also recorded: significant inhibitory effect on the tumor”. Also, the Volume of tumor in series [4] (Day 10) worked out at 47 mm^3; in series [4] (Day 13), 127 mm^3; in series [4] (Day 15), 204 mm^3; in series [4] (Day 18), 312 mm^3; in series [4] (Day 20), 409 mm^3; in series [4] (Day 22), 538 mm^3.
